Test results reported in patent US20150290612A1 (priority 2012, published 2015).

Target: Acetylcholinesterase (AChE) (Electrophorus electricus, UniProt O42275)
Type: biochemical

Sequence of Acetylcholinesterase (AChE) (O42275 24-633): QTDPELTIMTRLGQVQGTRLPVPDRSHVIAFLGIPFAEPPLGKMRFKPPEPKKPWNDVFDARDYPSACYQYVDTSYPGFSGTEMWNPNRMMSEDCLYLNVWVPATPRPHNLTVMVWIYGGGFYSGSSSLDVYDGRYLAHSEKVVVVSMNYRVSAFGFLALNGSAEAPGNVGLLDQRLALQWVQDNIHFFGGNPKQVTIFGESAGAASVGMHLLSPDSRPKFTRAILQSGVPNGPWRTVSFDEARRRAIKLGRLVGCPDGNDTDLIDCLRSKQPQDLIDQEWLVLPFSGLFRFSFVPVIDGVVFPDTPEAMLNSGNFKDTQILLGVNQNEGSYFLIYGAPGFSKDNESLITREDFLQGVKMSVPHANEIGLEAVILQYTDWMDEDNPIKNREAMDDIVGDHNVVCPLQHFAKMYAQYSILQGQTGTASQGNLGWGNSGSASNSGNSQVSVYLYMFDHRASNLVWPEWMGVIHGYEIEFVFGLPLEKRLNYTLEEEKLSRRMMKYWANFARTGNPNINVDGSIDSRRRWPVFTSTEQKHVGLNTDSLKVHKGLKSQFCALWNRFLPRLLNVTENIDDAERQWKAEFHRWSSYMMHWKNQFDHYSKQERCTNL

How did the “Interference with analysis of organophosphates” value turn out when `CCNc1nc(Cl)nc(NC(C)C)n1` [atrazine] was run?
The value was “no interference”.

Which “Interference with analysis of organophosphates” value does the source give for `CCNc1nc(Cl)nc(NCC)n1` [simazine] here?
The value was “no interference”.
